Assay results from ChEMBL document CHEMBL1201862, “PubChem BioAssay data set” (2004).
Activity calls are given as the source filed them.

Assays:
Type in all cases: functional
[1] = molecular target: T1, Tyrosine-protein phosphatase non-receptor type 11 (Homo sapiens, UniProt Q06124); assay: SHP2 phosphatase inhibition, dose response, selectivity assay for STEP inhibitor project, biochemical (AID 602367); conditions: read-out: IC50_Mean
T1 sequence (Q06124 whole entry): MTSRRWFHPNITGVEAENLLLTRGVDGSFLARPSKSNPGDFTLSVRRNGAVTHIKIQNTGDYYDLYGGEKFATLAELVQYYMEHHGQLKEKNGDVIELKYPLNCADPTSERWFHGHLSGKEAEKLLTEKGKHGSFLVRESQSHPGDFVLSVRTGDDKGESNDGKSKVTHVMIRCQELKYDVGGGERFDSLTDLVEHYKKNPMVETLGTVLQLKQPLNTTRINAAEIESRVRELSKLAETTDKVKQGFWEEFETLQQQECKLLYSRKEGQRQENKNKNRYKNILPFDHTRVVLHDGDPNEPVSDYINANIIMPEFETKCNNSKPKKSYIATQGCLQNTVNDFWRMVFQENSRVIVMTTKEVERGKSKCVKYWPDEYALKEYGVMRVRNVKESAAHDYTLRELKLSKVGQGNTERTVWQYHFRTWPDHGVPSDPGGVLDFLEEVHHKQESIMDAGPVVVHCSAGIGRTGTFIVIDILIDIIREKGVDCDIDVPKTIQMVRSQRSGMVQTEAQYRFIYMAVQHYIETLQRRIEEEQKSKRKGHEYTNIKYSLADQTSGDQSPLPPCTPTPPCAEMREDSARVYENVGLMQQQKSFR

[2] = molecular target: T2, Tyrosine-protein phosphatase non-receptor type 5 (Homo sapiens, UniProt P54829); assay: STEP phosphatase inhibitors, confirmation, biochemical, fluorescence intensity, uHTS hits (AID 602372); conditions: read-out: IC50_Mean
T2 sequence (P54829 whole entry): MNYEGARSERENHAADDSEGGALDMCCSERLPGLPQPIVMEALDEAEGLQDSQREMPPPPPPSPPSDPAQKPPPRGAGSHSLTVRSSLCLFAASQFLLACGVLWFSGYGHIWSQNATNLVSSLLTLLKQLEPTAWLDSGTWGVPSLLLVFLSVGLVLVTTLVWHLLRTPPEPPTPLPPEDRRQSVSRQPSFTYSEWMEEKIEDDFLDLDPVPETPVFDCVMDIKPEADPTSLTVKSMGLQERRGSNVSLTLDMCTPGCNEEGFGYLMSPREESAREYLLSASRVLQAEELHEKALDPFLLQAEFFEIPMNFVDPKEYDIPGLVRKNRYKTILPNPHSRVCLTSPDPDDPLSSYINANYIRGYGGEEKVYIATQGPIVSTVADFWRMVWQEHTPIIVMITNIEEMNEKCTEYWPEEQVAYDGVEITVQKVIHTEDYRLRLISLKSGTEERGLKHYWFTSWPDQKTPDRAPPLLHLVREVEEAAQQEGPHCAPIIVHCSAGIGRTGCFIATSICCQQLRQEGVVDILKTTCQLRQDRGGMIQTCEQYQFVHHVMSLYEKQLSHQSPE

[3] = molecular target: Dual specificity protein phosphatase 3 (Homo sapiens, UniProt P51452); assay: VHR phosphatase inhibition, dose response, selectivity assay for STEP inhibitor project, biochemical (AID 602374); conditions: read-out: IC50_Mean
[4] = molecular target: T3, Low molecular weight phosphotyrosine protein phosphatase (Homo sapiens, UniProt P24666); conditions: read-out: IC50_Mean
T3 sequence (P24666 whole entry): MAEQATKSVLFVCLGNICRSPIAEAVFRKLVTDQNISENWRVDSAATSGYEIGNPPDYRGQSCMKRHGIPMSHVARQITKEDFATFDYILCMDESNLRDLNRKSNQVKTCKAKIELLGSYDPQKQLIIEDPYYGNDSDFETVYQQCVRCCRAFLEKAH

[5] = molecular target: T3, Low molecular weight phosphotyrosine protein phosphatase; conditions: read-out: IC50_Mean; remark: listed apart in the source
[6] = molecular target: T4, ATP-dependent translocase ABCB1 (Homo sapiens, UniProt P08183); assay: ABCG2 efflux pump inhibitor potency, dose response, Ig-MXP3 cells, JC-1, flow cytometry, set 2 (AID 504566); conditions: read-out: EC50_MICROM_;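 note: flow cytometry median green fluorescence of retained JC-1 dye; potency of efflux pump inhibition measured as rising substrate retention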
[7] = molecular target: T4, ATP-dependent translocase ABCB1; assay: ABCB1 efflux inhibitor potency, dose response, Jurkat-DNR cells, JC-1, flow cytometry, set 2 (AID 504569); conditions: read-out: EC50_MICROM_;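 note: potency of pump inhibitors that raise cellular JC-1 green fluorescence up to the nicardipine level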
Interleukin-8 [8] = molecular target: T5, Interleukin-8 (Homo sapiens, UniProt P10145); assay: Dose Response confirmation of uHTS small molecule hits for cystic fibrosis induced NFkb Inhibitors in a TNFa-induced IL8 counterscreen.; conditions: read-out: IC50_Mean
Interleukin-8 [9] = molecular target: T5, Interleukin-8; assay: Dose Response confirmation of uHTS small molecule hits for cystic fibrosis induced NFkb Inhibitors in a PAF-induced IL8 counterscreen.; conditions: read-out: IC50_Mean

T4 sequence (P08183 whole entry): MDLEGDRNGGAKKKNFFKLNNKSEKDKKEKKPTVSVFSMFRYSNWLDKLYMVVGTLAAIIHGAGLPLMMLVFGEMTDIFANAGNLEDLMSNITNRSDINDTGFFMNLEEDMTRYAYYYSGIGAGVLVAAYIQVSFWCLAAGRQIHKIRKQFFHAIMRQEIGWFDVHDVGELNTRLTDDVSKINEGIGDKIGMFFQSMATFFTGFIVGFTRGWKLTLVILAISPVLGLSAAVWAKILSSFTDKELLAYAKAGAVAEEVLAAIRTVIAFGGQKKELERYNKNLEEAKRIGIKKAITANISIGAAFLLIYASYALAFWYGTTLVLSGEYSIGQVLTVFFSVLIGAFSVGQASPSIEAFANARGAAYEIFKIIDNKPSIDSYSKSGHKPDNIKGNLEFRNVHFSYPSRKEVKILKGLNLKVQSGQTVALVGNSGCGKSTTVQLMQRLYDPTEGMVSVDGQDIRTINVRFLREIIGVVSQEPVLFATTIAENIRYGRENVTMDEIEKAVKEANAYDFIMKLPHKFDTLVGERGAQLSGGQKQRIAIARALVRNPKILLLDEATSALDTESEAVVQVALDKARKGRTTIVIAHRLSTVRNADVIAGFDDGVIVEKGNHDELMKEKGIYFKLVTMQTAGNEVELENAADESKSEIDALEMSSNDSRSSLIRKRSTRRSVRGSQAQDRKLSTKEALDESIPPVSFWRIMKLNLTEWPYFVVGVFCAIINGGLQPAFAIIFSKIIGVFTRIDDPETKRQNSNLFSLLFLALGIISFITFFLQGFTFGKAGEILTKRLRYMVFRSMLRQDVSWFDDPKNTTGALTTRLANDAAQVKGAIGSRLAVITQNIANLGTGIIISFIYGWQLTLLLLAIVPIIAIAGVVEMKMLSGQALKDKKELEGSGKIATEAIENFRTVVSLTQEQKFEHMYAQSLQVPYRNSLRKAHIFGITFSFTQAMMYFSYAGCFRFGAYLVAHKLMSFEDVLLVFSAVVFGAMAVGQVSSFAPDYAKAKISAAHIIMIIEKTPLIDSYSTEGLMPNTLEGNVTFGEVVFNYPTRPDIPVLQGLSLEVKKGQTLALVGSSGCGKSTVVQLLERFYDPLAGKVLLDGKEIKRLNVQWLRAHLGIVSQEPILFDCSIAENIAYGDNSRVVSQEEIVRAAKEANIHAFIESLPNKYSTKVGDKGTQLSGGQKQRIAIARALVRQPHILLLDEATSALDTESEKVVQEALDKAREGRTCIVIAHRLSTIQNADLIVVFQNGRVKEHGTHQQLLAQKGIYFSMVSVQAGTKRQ
T5 sequence (P10145 whole entry): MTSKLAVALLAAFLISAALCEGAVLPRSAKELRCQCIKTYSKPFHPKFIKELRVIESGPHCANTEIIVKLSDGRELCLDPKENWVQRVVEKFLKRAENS
Sequence of Dual specificity protein phosphatase 3 (P51452 whole entry): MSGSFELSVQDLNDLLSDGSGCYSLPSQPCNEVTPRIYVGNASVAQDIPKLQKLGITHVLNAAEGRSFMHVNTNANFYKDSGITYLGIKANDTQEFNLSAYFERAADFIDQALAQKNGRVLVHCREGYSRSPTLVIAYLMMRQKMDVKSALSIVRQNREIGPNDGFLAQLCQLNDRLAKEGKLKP

O=C(N/N=C/c1cccc([N+](=O)[O-])c1)c1ccc(Br)cc1
IC50 [1]: 6.62 µM (active) | IC50 [2]: 8.16 µM (active) | IC50 [3]: 5.03 µM (active) | IC50 [4]: 15.1 µM (active) | IC50 [5]: 22.8 µM (inactive)

O=C(c1ccccc1Cl)N1CCN(c2cc(-c3ccccc3)nc3cc(-c4cccc(Cl)c4)nn23)CC1
EC50 [6]: 1.15 µM (active) | EC50 [7]: 1.07 µM (active)

Fc1cccc(Cl)c1/C=N/Nc1c(Cl)cncc1Cl
IC50 (Interleukin-8 [8]): > 79 µM (inactive) | IC50 (Interleukin-8 [9]): 14.8 µM (inactive)
